The source of these data is ChEMBL document CHEMBL4808205, “Discovery of TAK-041: a Potent and Selective GPR139 Agonist Explored for the Treatment of Negative Symptoms Associated with Schizophrenia” (J Med Chem, 2021).

Data set [1] concerns MDR1. Put plainly: Apparent permeability in dog MDCK-MDR1 cells. It is filed as ADME, cell-based, Canis lupus familiaris.
Data set [2] can be described thus: Bioavailability in rat at 1 mg/kg, iv. It is filed as ADME, organism-based. Particulars: in vivo, po 2 mg/kg vs iv 1 mg/kg.
Data set [3] is described as follows: Volume of distribution in rat at 1 mg/kg, iv or 2 mg/kg, po. As to conditions: in vivo. It is filed as ADME, organism-based.
The nature of data set [4]: Free drug concentration in BALB/c mouse brain. Particulars: in vivo. Format: ADME, tissue-based.
A short description of data set [5]: Cmax in rat at 1 mg/kg, iv or 2 mg/kg, po. It is filed as ADME, organism-based. Further details: dose 2 mg/kg. As to conditions: in vivo.
The nature of data set [6]: Lipophilicity, logD of compound. Particulars: octanol/water. Format: physicochemical.
The test system of data set [7] is MDR1 (human). Put plainly: Permeability across apical to basolateral side in pig LLC-PK1 cells expressing human MDR1. It is filed as ADME, cell-based, Sus scrofa. As to conditions: read-out: permeability.
Data set [8] is described as follows: Oral bioavailability in mouse at 30 mg/kg after 1 hr. Format: ADME, organism-based. Particulars: in vivo.

With `O=C(Cn1nnc2ccccc2c1=O)NCCc1ccc(Cl)cc1`, in data set [1], the Papp worked out at 9.1 ×10⁻⁶ cm/s.

Consider `COc1cccc2nnn(CC(=O)N[C@@H](C)c3ccc(C)cc3)c(=O)c12`, for which, in data set [2], the bioavailability turned out to be 50%. For the same compound, the Vd in data set [3] came out at 0.4 L/kg. Besides, in data set [4], the “Drug uptake(free)” value is on record as less than 10 nM. Also, the concentration in data set [5] peaked (Cmax) at 541 ng/mL.

With `C[C@H](NC(=O)Cn1nnc2ccccc2c1=O)c1ccc(C(F)(F)F)cc1`, in data set [2], the bioavailability is greater than 100%. The compound also returned a Vd in data set [3] of 1.4 L/kg. Further, the “Drug uptake(free)” value in data set [4] is less than 10 nM. Besides, the Cmax in data set [5] came to 644 ng/mL.

Compound `C[C@H](NC(=O)Cn1nnc2ccccc2c1=O)c1ccc(OC(F)(F)F)cc1` [ZELATRIAZIN] showed a bioavailability in data set [2] of 100%. In data set [6], this compound showed a logD of 2.4. In data set [3], this compound registered a Vd of 1 L/kg. Also, in data set [4], the “Drug uptake(free)” value is reported as less than 10 nM. In data set [5], this compound showed a Cmax of 961 ng/mL. In data set [7], the Papp A→B was found to be 18.3 ×10⁻⁶ cm/s.

With `COc1ccc2nnn(CC(=O)N[C@@H](C)c3ccc(C)cc3)c(=O)c2c1`, the bioavailability in data set [2] turned out to be 2%. The Vd in data set [3] stood at 0.6 L/kg. In data set [5], this compound returned a Cmax of 15 ng/mL.

`Cc1ccc([C@H](C)NC(=O)Cn2nnc3ccccc3c2=O)cc1`: the bioavailability in data set [2] was 27%; in data set [8], 30%. The compound further came in with a Vd in data set [3] of 2.1 L/kg. This compound also returned a Cmax in data set [5] of 94 ng/mL.
